Laboratory results: patent US8633245B2, “PAI-1 inhibitor” (Institute of Medicinal Molecular Design, Inc., priority 2008, dated 2014)

Target: T1, recombinant human PAI-1 (Homo sapiens, UniProt P05121)
T1 construct: purchased Molecular Innovations, Inc
Test: Test Example 1: human PAI-1 inhibitory activity (tPA fluorogenic substrate, pH 7.5 Tris buffer)
Format: biochemical
Conditions: Tris buffer
Description: 50 mM Tris, 150 mM NaCl, 10 μg/ml BSA, 0.01% Tween80 (SIGMA-ALDRICH Corporation)

T1 sequence (P05121 24-402): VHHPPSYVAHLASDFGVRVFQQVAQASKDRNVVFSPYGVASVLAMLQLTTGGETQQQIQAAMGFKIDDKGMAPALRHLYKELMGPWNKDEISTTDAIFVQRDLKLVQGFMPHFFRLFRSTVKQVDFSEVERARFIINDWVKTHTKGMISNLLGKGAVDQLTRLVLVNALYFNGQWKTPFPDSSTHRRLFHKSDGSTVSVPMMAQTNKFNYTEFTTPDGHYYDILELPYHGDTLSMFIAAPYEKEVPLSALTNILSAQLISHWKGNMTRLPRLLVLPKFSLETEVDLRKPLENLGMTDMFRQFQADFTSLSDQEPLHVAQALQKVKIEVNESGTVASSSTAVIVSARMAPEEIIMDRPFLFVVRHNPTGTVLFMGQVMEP

Row | SMILES | Inhibition Rate of PAI-1 Activity (%) (Compound Concentration 5 μM) | Inhibition Rate of PAI-1 Activity (%) (Compound Concentration 10 μM) | Inhibition Rate of PAI-1 Activity (%) (Compound Concentration 25 μM) | Inhibition Rate of PAI-1 Activity (%) (Compound Concentration 0.5 μM) | Inhibition Rate of PAI-1 Activity (%) (Compound Concentration 1 μM)
1 | O=C(O)C(=O)N(CCCCc1ccccc1)c1ccc(N2CCOCC2)c(-c2ccc(OC(F)(F)F)cc2)c1 [Compound 243] | 42% | 64% | 89% | – | –
2 | CCCCCOc1ccc(N(CCCCc2ccccc2)C(=O)C(=O)O)cc1-c1ccc(OC(F)(F)F)cc1 [Compound 244] | 71% | 91% | – | – | –
3 | CCCCCCOc1ccc(-c2ccc(OC(F)(F)F)cc2)cc1N(CCCCc1ccccc1)C(=O)C(=O)O [Compound 245] | 93% | 97% | – | – | –
4 | Cc1cc(N(C)C)c(-c2ccc(OC(F)(F)F)cc2)cc1N(CCCCc1ccccc1)C(=O)C(=O)O [Compound 246] | 79% | 96% | – | – | –
5 | O=C(O)C(=O)N(CCCCc1ccccc1)c1ccc(N2CCCCC2)c(-c2ccc(OC(F)(F)F)cc2)c1 [Compound 247] | 93% | 99% | – | – | –
6 | CC(C)Oc1ccc(N(CCCCc2ccccc2)C(=O)C(=O)O)cc1-c1ccc(OC(F)(F)F)cc1 [Compound 248] | 60% | 89% | 96% | – | –
7 | CC(C)(C)Oc1ccc(N(CCCCc2ccccc2)C(=O)C(=O)O)cc1-c1ccc(OC(F)(F)F)cc1 [Compound 249] | 68% | 89% | – | – | –
8 | O=C(O)C(=O)N(CCCCc1ccccc1)c1ccc(N2CCCCC2=O)c(-c2ccc(OC(F)(F)F)cc2)c1 [Compound 250] | 83% | 78% | – | – | –
9 | CCCCCCN(C(=O)C(=O)O)c1ccc(Oc2ccc(OC(F)(F)F)cc2)cc1 [Compound 252] | 3% | 6% | 34% | – | –
10 | O=C(O)C(=O)N(c1ccc(-c2ccc(OC(F)(F)F)cc2)cc1)C1CCCCC1 [Compound 253] | 9% | 16% | 36% | – | –
11 | CCCCCN(C(=O)C(=O)O)c1ccc(-c2ccc(OC(F)(F)F)cc2)cc1 [Compound 254] | 3% | 9% | 31% | – | –
12 | CC(C)(C)CN(C(=O)C(=O)O)c1ccc(-c2ccc(OC(F)(F)F)cc2)cc1 [Compound 255] | 2% | 8% | 23% | – | –
13 | O=C(O)CCc1cc(OCc2ccc(OC(F)(F)F)cc2)ccc1OCc1ccc(OC(F)(F)F)cc1 [Compound 404] | 14% | 31% | 84% | – | –
14 | CC(C)(C)c1ccc(COc2cc(/C=C/C(=O)O)cc(Oc3ccc(OC(F)(F)F)cc3)c2)cc1 [Compound 409] | 26% | 59% | 97% | – | –
15 | CC(C)(C)c1ccc(COc2cc(CCC(=O)O)cc(Oc3ccc(OC(F)(F)F)cc3)c2)cc1 [Compound 410] | 37% | 71% | 98% | – | –
16 | CC(C)(C)c1ccc(COc2ccc(Nc3ccc(OC(F)(F)F)cc3)cc2CCC(=O)O)cc1 [Compound 412] | 22% | 46% | 92% | – | –
17 | CC(C)(C)c1ccc(COc2ccc(OCc3ccc(OC(F)(F)F)cc3)cc2/C=C/C(=O)O)cc1 [Compound 413] | 38% | 66% | 84% | – | –
18 | CC(C)(C)c1ccc(COc2ccc(OCc3ccc(OC(F)(F)F)cc3)cc2CCC(=O)O)cc1 [Compound 414] | 33% | 67% | 96% | – | –
19 | CN(c1ccc(OC(F)(F)F)cc1)c1ccc(OCc2ccc(C(C)(C)C)cc2)c(CCC(=O)O)c1 [Compound 417] | 44% | 79% | 98% | – | –

Row | SMILES | Inhibition Rate of PAI-1 Activity (%) (Compound Concentration 5 μM) | Inhibition Rate of PAI-1 Activity (%) (Compound Concentration 10 μM) | Inhibition Rate of PAI-1 Activity (%) (Compound Concentration 25 μM) | Inhibition Rate of PAI-1 Activity (%) (Compound Concentration 0.5 μM) | Inhibition Rate of PAI-1 Activity (%) (Compound Concentration 1 μM)
20 | CC(C)(Nc1cc(-c2ccc(OC(F)(F)F)cc2)ccc1OCc1ccc(C(C)(C)C)cc1)C(=O)O [Compound 420] | 42% | 64% | 83% | – | –
21 | CC(C)(C)c1ccc(COc2ccc(-c3ccc(OC(F)(F)F)cc3)cc2NCC(=O)O)cc1 [Compound 539] | 14% | 34% | 65% | – | –
22 | CC(C)(C)c1ccc(-c2ccc(Oc3ccc(-c4ccc(OC(F)(F)F)cc4)cc3/C=C/C(=O)O)c(CCC(=O)O)c2)cc1 [Compound 540] | 75% | 91% | 91% | – | –
23 | CC(C)(C)c1ccc(-c2ccc(Oc3ccc(-c4ccc(OC(F)(F)F)cc4)cc3CCC(=O)O)c(CCC(=O)O)c2)cc1 [Compound 541] | 77% | 93% | >99% | – | –
24 | CC(C)(C)c1ccc(Oc2ccc(-c3ccc(OC(F)(F)F)cc3)cc2CCC(=O)O)c(CCC(=O)O)c1 [Compound 542] | 67% | – | – | 0% | 14%
25 | CC(C)(C)c1ccc(COc2cc(-c3ccc(OC(F)(F)F)cc3)cc(O)c2OCC(=O)O)cc1 [Compound 546] | 61% | – | – | 4% | 14%
26 | CC(C)(C)c1ccc(CN(C(=O)CCC(=O)O)c2ccc(-c3ccc(OC(F)(F)F)cc3)cc2)cc1 [Compound 609] | 38% | 69% | >99% | – | –
27 | CC(C)(C)c1ccc(CN(C(=O)C(=O)O)c2ccc(OCc3ccc(OC(F)(F)F)cc3)cc2)cc1 [Compound 616] | 49% | 83% | 96% | – | –
28 | CC(C)(C)c1ccc(CN(C(=O)C(=O)O)c2cccc(OCc3ccc(OC(F)(F)F)cc3)c2)cc1 [Compound 619] | 48% | 83% | 92% | – | –
29 | CC(C)(C)c1ccc(CN(C(=O)C(=O)O)c2ccccc2OCc2ccc(OC(F)(F)F)cc2)cc1 [Compound 620] | 41% | 77% | 95% | – | –
30 | CC(C)(C)c1ccc(CN(C(=O)C(=O)O)c2ccc(Sc3ccc(OC(F)(F)F)cc3)cc2)cc1 [Compound 621] | 67% | 95% | 91% | – | –
31 | CC(C)(C)c1ccc(CN(C(=O)C(=O)O)c2ccc(OCc3ccc(OC(F)(F)F)cc3)c(OCc3ccc(OC(F)(F)F)cc3)c2)cc1 [Compound 622] | 44% | 72% | 88% | – | –
32 | CN(C(=O)C(=O)O)c1ccc(OCc2ccc(OC(F)(F)F)cc2)c(OCc2ccc(OC(F)(F)F)cc2)c1 [Compound 623] | 22% | 41% | 87% | – | –
33 | Cc1ccc(N(Cc2ccc(C(C)(C)C)cc2)C(=O)C(=O)O)cc1OCc1ccc(OC(F)(F)F)cc1 [Compound 625] | 59% | 92% | 91% | – | –
34 | CC(C)(C)c1ccc(CN(C(=O)C(=O)O)c2ccc(Nc3ccc(OC(F)(F)F)cc3)cc2)cc1 [Compound 626] | 42% | 77% | 97% | – | –
35 | CC(C)(C)c1ccc(CN(C(=O)C(=O)O)c2ccc(Cl)c(OCc3ccc(OC(F)(F)F)cc3)c2)cc1 [Compound 629] | 62% | 92% | 88% | – | –
36 | CC(C)(C)c1ccc(CN(C(=O)C(=O)O)c2ccc(SCc3ccc(OC(F)(F)F)cc3)cc2)cc1 [Compound 630] | 56% | 89% | 88% | – | –
37 | CC(C)(C)c1ccc(CN(C(=O)C(=O)O)c2ccccc2Sc2ccc(OC(F)(F)F)cc2)cc1 [Compound 631] | 58% | 86% | 86% | – | –
